# Key:
# RAW 264.7 cells = test: RANKL-mediated osteoclastogenesis / matrix resorption (Osteologic) assay; assay type: cell-based, murine; conditions: Mus musculus, RAW264.7, 168 h; read-out: Lowest inhibitory concentration, matrix resorption
# Procedure, shortened: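 Agents were tested during or after differentiation. Wells were bleached and resorption pits were quantified by image analysis versus RANKL-only controls, using an unpaired t-test.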
# [1] = Comparison of in vitro screens: overlapping effective and nontoxic range; conditions: inhibits with minimal or no toxicity to synovium or cartilage; overlapping range if effective in more than one assay;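 note: compares non-toxic ranges in synovial cells and chondrocytes with effective ranges against NFkB, MMP-13 and osteoclasts, giving their overlap as the predicted efficacy range in uM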
# MMT/MCLT rat model of OA = test: MMT/MCLT trial 2 histopathology (same doses); assay type: in vivo; parameters: key to Total joint score w/o femur / Total joint score: sum: cartilage degeneration scores + mean osteophyte score; conditions: mean; i.a., tacrolimus 15 ng
# Description: For MMT/MCLT rat knee joints, sections were cut in 200-μm steps; stained with toluidine blue (also with a right and left half per section); and similarly analyzed for cartilage degeneration, proteoglycan loss, collagen damage, and osteophyte formation. Results were averaged across the three sections for an overall semiquantitative score. Regional differences across the tibial plateau were taken into consideration by dividing each section into three zones delineated using an ocular micrometer (outside, middle, and inside). Scores were based on the percentage of area affected within the zone.
# Cartilage degeneration in the tibia was scored on a 5-point scale as detailed in the Methods section of Additional file 1. The total extent of degeneration of the tibial plateau was measured (in micrometers) and included an analysis of cell loss, proteoglycan loss, and collagen damage. Significant cartilage degeneration reflecting any degeneration extending through more than 50 % of the cartilage thickness was also measured. Collagen damage across the medial tibial plateau (the most severely affected section of the two halves) was also quantified.
# Osteophytes and femoral cartilage degeneration were analyzed as detailed in Additional file 1. Scoring of the osteophytes and categorization into small, medium, and large was performed using an ocular micrometer. The actual osteophyte measurement (tidemark to farthest distance point extending toward the synovium) was also recorded. The femoral cartilage degeneration score and the three-zone sum of the tibial cartilage degeneration scores (mean of three levels) were summed to create a total cartilage degeneration score. The mean osteophyte score for each joint was added to this value to create a total joint score. […]
# Histopathology MMT/MCLT Model
# [2] = published half-life; cited from earlier work
# SW982 = test: Synovial toxicity (CellTiter-Glo), with or without TNF-α
# Description: Viability was measured with the CellTiter-Glo luminescent viability assay (Promega). […] To more accurately predict the effects of the drugs on osteoarthritic synovium, cells were tested with or without TNF-α (20 ng/ml; BioSource).
# In Vitro Toxicity Testing with a Synovial Cell Line
# Compounds were tested for synovial toxicity using SW982 cells alone or in the presence of TNF as
smiles,measurement,setting,value
CC(C)(C)CC(=O)OCC(=O)[C@@]12OC(C)(C)O[C@@H]1C[C@H]1[C@@H]3CCC4=CC(=O)C=C[C@]4(C)[C@@]3(F)[C@@H](O)C[C@@]12C [Triamcinolone hexacetonide],minimal effective concentration,RAW 264.7 cells,0.297 µM
same,Overlapping effective and nontoxic range,[1],62.5 to 3750 µM
same,Femoral cartilage degeneration score,MMT/MCLT rat model of OA,2.03 ± 0.52
same,Total joint score,MMT/MCLT rat model of OA,11.30 ± 1.21
same,t 1/2,[2],Steroid t 1/2 = 88 min
same,Non-toxic range (Synovial),SW982,3.12 to 400 µM

# From publication PMC4721142, “Randomized controlled studies on the efficacy of antiarthritic agents in inhibiting cartilage degeneration and pain associated with progression of osteoarthritis in the rat” (Arthritis Research & Therapy, 2016)
